Experimental findings from patent publication US20120328530A1, “TOLUIDINE BLUE DERIVATIVES AS PHOTOSENSITISING COMPOUNDS” (PHARMALUCIA LIMITED, priority 2010, published 2012) are described below.

Holding throughout (assay type): cell-based
Assay [1] concerns Enterococcus faecalis (NCIMB 13280). Briefly: Photobactericidal efficacy, minimum bactericidal concentration. The settings on record: 10^6 cfu/ml, 1 hour at 37° C. with photosensitiser, illuminated twenty minutes, LEDs 660 nm, 6.2 J cm^-2; table does not say light or dark. The procedure: (§1) The photobactericidal efficacies of the compounds of examples 2a to 2d in addition to that of the known photosensitiser methylene blue were measured against both Gram positive Staphylococcus aureus (NCTC 6571), Enterococcus faecalis (NCIMB 13280) and Propionibacterium acnes (NCTC 737) and Gram negative Escherichia coli (NCTC 10418), Proteus mirabilis (NCIMB 5887) and a clinical strain of Pseudomonas aeruginosa bacteria. Propionibacterium acnes was grown in reinforced clostridial medium. All other strains were grown in Mueller-Hinton Broth and then diluted to a concentration of 10^6 colony-forming units/ml. Aliquots of the strains were then incubated for 1 hour at 37° C. in microtitre trays with various concentrations of photosensitiser in doubling dilutions from 100 μM, with zero photosensitiser concentrations in each case for control purposes. The trays were then either illuminated for twenty minutes using an array of light-emitting diodes (660 nm) giving a light dose of 6.2 J cm^−2 or alternatively foil-covered to provide dark controls. From each well showing an inhibition of growth of the micro-organism, 1 μl was sub-cultured on nutrient agar, using the Miles-Misra method, and incubated for 18 hours at 37° C. The minimum bactericidal concentrations were then determined as the lowest concentration for each photosensitiser giving no bacterial growth.

Assay [2] relates to Staphylococcus aureus (NCTC 6571). The assay is described as above. The settings on record: NCTC6571, 10^6 cfu/ml, 1 hour at 37° C. with photosensitiser, illuminated twenty minutes, LEDs 660 nm, 6.2 J cm^-2, table does not say light or dark, read-out: minimum concentration needed to achieve the antibacterial activity (minimum bactericidal concentration), S. aureus. The method, then:
as §1

Assay [3] has as its system Proteus mirabilis (NCIMB 5887). Described as above. The settings on record: 10^6 cfu/ml, 1 hour at 37° C. with photosensitiser, illuminated twenty minutes, LEDs 660 nm, 6.2 J cm^-2; table does not say light or dark. The procedure: as §1
Assay [4] concerns Propionibacterium acnes (NCTC 737). The assay is described as above. The settings on record: Cutibacterium acnes, NCTC737; reinforced clostridial medium, 1 hour at 37° C. with photosensitiser, illuminated twenty minutes, LEDs 660 nm, 6.2 J cm^-2; table does not say light or dark; read-out: minimum concentration needed to achieve the antibacterial activity (minimum bactericidal concentration), Prop. acnes. The procedure: as §1

Assay [5] has as its system clinical strain of Pseudomonas aeruginosa. The assay is described as above. The settings on record: 10^6 cfu/ml, 1 hour at 37° C. with photosensitiser, illuminated twenty minutes, LEDs 660 nm, 6.2 J cm^-2, table does not say light or dark. The method, then: as §1
Assay [6] deals with Escherichia coli (NCTC 10418). The assay is described as above. Conditions: NCTC10418, 10^6 cfu/ml, 1 hour at 37° C. with photosensitiser, illuminated twenty minutes, LEDs 660 nm, 6.2 J cm^-2, table does not say light or dark, read-out: minimum concentration needed to achieve the antibacterial activity (minimum bactericidal concentration), E. coli. The method, then:
as §1

In assay [7] the test system is Candida albicans (NCPF 8179). Briefly: Antifungal screening, minimum concentration. Conditions: Sabouraud broth and agar, carried out similarly: illuminated twenty minutes, LEDs 660 nm, 6.2 J cm^-2; table does not say light or dark. The method, then: as §1
Antifungal screening was carried out similarly against the yeast Candida albicans (NCPF 8179), using Sabouraud broth and agar.

As to `CCc1cc2nc3ccc(N(C)C)cc3[s+]c2cc1N` [Compound 2a], the “minimum concentration needed to achieve the antibacterial activity (minimum bactericidal concentration), Enterococcus facecalis” value in assay [1] amounted to 1.35 µM. Further, the MBC in assay [2] worked out at 3.13 µM; in assay [4], 0.78 µM; in assay [6], 1.47 µM. For the same compound, the “minimum concentration needed to achieve the antibacterial activity (minimum bactericidal concentration), Proteus mirabilis” value (from here on “minimum concentration needed … Proteus mirabilis”) in assay [3] was determined as 5.50 µM. The “minimum concentration needed to achieve the antibacterial activity (minimum bactericidal concentration), Pseudomonas Aeruginosa” value in assay [5] is 3.13 µM. In assay [7], the “minimum concentration needed to achieve the antifungal activity, Candida albicans” value (“minimum concentration needed … Candida albicans” for short) worked out at 3.13 µmol/L.

In the case of `CCCc1cc2nc3ccc(N(C)C)cc3[s+]c2cc1N` [Compound 2b, 3-Amino-7-(dimethylamino)-2-n-propylphenothiazinium hydrogensulphate], the “minimum concentration needed to achieve the antibacterial activity (minimum bactericidal concentration), Enterococcus facecalis” value in assay [1] amounted to 0.33 µM. In addition, the MBC in assay [2] turned out to be 3.13 µM; in assay [4], 0.78 µM; in assay [6] it was 1.32 µM. Besides, in assay [3], the “minimum concentration needed … Proteus mirabilis” value stood at 5.32 µM. Also, the “minimum concentration needed to achieve the antibacterial activity (minimum bactericidal concentration), Pseudomonas Aeruginosa” value in assay [5] came to 0.78 µM. The “minimum concentration needed … Candida albicans” value in assay [7] amounted to 0.78 µmol/L.

Regarding `CN(C)c1ccc2nc3cc(C(C)(C)C)c(N)cc3[s+]c2c1` [Compound 2c, 3-Amino-2-tert-butyl-7-(dimethylamino)phenothiazinium hydrogensulphate], the MBC was 3.13 µM in assay [2], 0.78 µM in assay [4] and 3.13 µM in assay [6]. The “minimum concentration needed to achieve the antibacterial activity (minimum bactericidal concentration), Pseudomonas Aeruginosa” value in assay [5] came out at 0.39 µM. In addition, in assay [7], the “minimum concentration needed … Candida albicans” value turned out to be 3.13 µmol/L.

`CN(C)c1ccc2nc3cc(-c4ccccc4)c(N)cc3[s+]c2c1` [Compound 2d, 3-Amino-7-(dimethylamino)-2-phenylphenothiazinium hydrogensulphate]: the MBC in assay [2] and in assay [6] was 3.13 µM each time. Also, the “minimum concentration needed … Candida albicans” value in assay [7] turned out to be 0.78 µmol/L.

With `Cc1cc2c(cc1N)=[SH]c1cc(N(C)C)ccc1N=2` [toluidine blue, Toluidine blue], the “minimum concentration needed to achieve the antibacterial activity (minimum bactericidal concentration), Enterococcus facecalis” value in assay [1] came out at 7.36 µM. Besides, the “minimum concentration needed … Proteus mirabilis” value in assay [3] amounted to 14.71 µM. Moreover, the “minimum concentration needed to achieve the antibacterial activity (minimum bactericidal concentration), Pseudomonas Aeruginosa” value in assay [5] came out at 7.36 µM. Moreover, the “minimum concentration needed … Candida albicans” value in assay [7] stood at 12.5 µmol/L.
